Test results taken from the supplement of paper PMC10307832.

Columns and labels:
Assay in all cases: relative viability (nuclei count vs DMSO), 5 days (fraction); higher = more cells survive
[1] = compound: C1/C(=C\C2=CC=CS2)/C(=O)/C(=C/C3=CC=CS3)/C1 + Nc1nc2[nH]cc(CCc3ccc(C(=O)N[C@@H](CCC(=O)O)C(=O)O)cc3)c2c(=O)[nH]1 [Pemetrexed] (partner 0.2 µM)
How it was run: (§1)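 The day after seeding in 1536-well plates, lung cancer cell lines were treated by pin tool with a single drug, or with a fixed anchor-drug dose together with five library-drug doses (not always all listed) in √10 steps. After 5 days, a combined fix-and-stain solution (final 0.05% Triton X-100, 1% formaldehyde, 1 ug/ml Hoechst) was added. Nuclei counted on 4× images gave relative viability as treated counts over vehicle counts, reported as the median of duplicate plates.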

TPCA-1 + AZD7762 = compound: C1=CC(=CC=C1C2=CC(=C(S2)NC(=O)N)C(=O)N)F [TPCA-1] + NC(=O)Nc1cc(-c2cccc(F)c2)sc1C(=O)N[C@H]1CCCNC1 [AZD7762] (partner 0.2 µM)
How it was run: as §1

Lestaurtinib + Foretinib = compound: C[C@]12O[C@H](C[C@]1(O)CO)n1c3ccccc3c3c4c(c5c6ccccc6n2c5c31)CNC4=O [Lestaurtinib] + COc1cc2c(Oc3ccc(NC(=O)C4(C(=O)Nc5ccc(F)cc5)CC4)cc3F)ccnc2cc1OCCCN1CCOCC1 [Foretinib] (partner 0.25 µM)
How it was run: as §1

Lestaurtinib + Dasatinib = compound: C[C@]12O[C@H](C[C@]1(O)CO)n1c3ccccc3c3c4c(c5c6ccccc6n2c5c31)CNC4=O [Lestaurtinib] + Cc1nc(Nc2ncc(C(=O)Nc3c(C)cccc3Cl)s2)cc(N2CCN(CCO)CC2)n1 [Dasatinib] (partner 0.075 µM)
How it was run: as §1

| Cell Line | relative viability ([1]; first compound 0.2 µM) | relative viability ([1]; first compound 0.6325 µM) | relative viability ([1]; first compound 2 µM) | relative viability ([1]; first compound 6.325 µM) | relative viability ([1]; first compound 20 µM) | relative viability (TPCA-1 + AZD7762; first compound 0.04 µM) | relative viability (TPCA-1 + AZD7762; first compound 0.1265 µM) | relative viability (TPCA-1 + AZD7762; first compound 0.4 µM) | relative viability (TPCA-1 + AZD7762; first compound 1.265 µM) | relative viability (TPCA-1 + AZD7762; first compound 4 µM) | relative viability (Lestaurtinib + Foretinib; first compound 0.005 µM) | relative viability (Lestaurtinib + Foretinib; first compound 0.01581 µM) | relative viability (Lestaurtinib + Foretinib; first compound 0.05 µM) | relative viability (Lestaurtinib + Foretinib; first compound 0.1581 µM) | relative viability (Lestaurtinib + Foretinib; first compound 0.5 µM) | relative viability (Lestaurtinib + Dasatinib; first compound 0.005 µM) | relative viability (Lestaurtinib + Dasatinib; first compound 0.01581 µM) | relative viability (Lestaurtinib + Dasatinib; first compound 0.05 µM) | relative viability (Lestaurtinib + Dasatinib; first compound 0.1581 µM) | relative viability (Lestaurtinib + Dasatinib; first compound 0.5 µM) |
| --- | --- | --- | --- | --- | --- | --- | --- | --- | --- | --- | --- | --- | --- | --- | --- | --- | --- | --- | --- | --- |
| RERF-LC-KJ | 0.474 | 0.49 | 0.473 | 0.449 | 0.511 | 1.03 | 0.844 | 0.914 | 0.739 | 0.652 | 0.914 | 1.04 | 0.762 | 0.749 | 0.816 | 0.902 | 0.908 | 0.526 | 0.648 | 0.316 |
| NCI-H322M | 0.628 | 0.642 | 0.681 | 0.503 | 0.626 | 0.608 | 0.555 | 0.538 | 0.579 | 0.519 | 0.935 | 1.02 | 0.523 | 0.609 | 0.45 | 0.233 | 0.279 | 0.277 | 0.293 | 0.339 |
| NCI-H1993 | 0.669 | 0.593 | 0.539 | 0.551 | 0.472 | 0.972 | 0.748 | 0.745 | 0.747 | 0.598 | 0.791 | 0.771 | 0.77 | 0.63 | 0.535 | 0.565 | 0.32 | 0.504 | 0.495 | 0.468 |
| NCI-H1437 | 0.286 | 0.362 | 0.353 | 0.252 | 0.311 | 1.19 | – | 1.14 | 1.03 | 0.906 | 1.35 | 1.4 | 1.29 | 1.17 | 1.07 | 0.442 | 0.475 | 0.331 | 0.382 | 0.265 |
| NCI-H838 | 0.249 | 0.256 | 0.261 | 0.212 | 0.242 | 0.972 | 0.855 | 0.935 | 0.801 | 0.886 | 1.12 | 1.04 | 0.869 | 0.519 | 0.26 | 0.281 | 0.296 | 0.264 | 0.286 | 0.216 |
| NCI-H1666 | 0.82 | 0.84 | 0.877 | 0.791 | 0.813 | 0.895 | 0.659 | 0.79 | 0.714 | 0.757 | 1.1 | 1.07 | 1.6 | 1.02 | 0.595 | 1.13 | 0.922 | 0.924 | 0.747 | 0.649 |
| NCI-H1944 | 0.619 | 0.591 | 0.603 | – | 0.572 | 0.474 | 0.484 | 0.565 | 0.455 | 0.474 | 0.909 | 0.848 | 0.698 | 0.652 | 0.366 | 0.207 | 0.23 | 0.176 | 0.137 | 0.147 |
| NCI-H1755 | 0.436 | 0.413 | 0.484 | 0.369 | 0.387 | 0.444 | 0.634 | 0.402 | 0.337 | 0.378 | 0.891 | 0.938 | 0.788 | 0.494 | 0.412 | 0.439 | 0.424 | 0.293 | 0.288 | 0.208 |
| NCI-H23 | 0.781 | 0.641 | 0.859 | 0.453 | 0.71 | 0.338 | 0.261 | 0.21 | 0.235 | 0.223 | 1.02 | 1.22 | 0.837 | 0.635 | 0.321 | 0.856 | 0.911 | 0.739 | 0.847 | 0.483 |
| 201T | 0.351 | 0.367 | 0.333 | 0.313 | 0.33 | 0.704 | 0.63 | 0.627 | 0.582 | 0.558 | 1.13 | 1.21 | 1.17 | 1.14 | 0.356 | 0.598 | 0.546 | 0.552 | 0.583 | 0.4 |
| NCI-H1734 | 0.439 | 0.433 | 0.457 | 0.37 | 0.426 | 0.558 | 0.504 | 0.604 | 0.639 | 0.374 | 0.891 | 0.951 | 0.705 | 0.383 | 0.179 | 0.48 | 0.518 | 0.42 | 0.263 | 0.143 |
| NCI-H1355 | 1.06 | 0.922 | 1 | 0.96 | 0.971 | 0.831 | 0.7 | 0.756 | 0.675 | 0.707 | 1.03 | 1.08 | 0.696 | 0.802 | 0.356 | 0.639 | 0.777 | 0.58 | 0.495 | 0.259 |
| NCI-H1915 | 0.456 | 0.529 | 0.479 | 0.447 | 0.475 | 0.744 | 0.679 | 0.671 | 0.588 | 0.617 | 1.14 | 1.21 | 0.869 | 0.762 | 0.287 | 0.37 | 0.272 | 0.243 | 0.236 | 0.191 |
